Measured values reported in BigSolDB 2.1.

Nc1cc(Cl)ccc1C(=O)O
solubility (mole fraction) (in 1,4-dioxane, 283.15 K): 0.0158 | solubility (mole fraction) (in 1,4-dioxane, 285.65 K): 0.0173 | solubility (mole fraction) (in 1,4-dioxane, 288.15 K): 0.0191 | solubility (mole fraction) (in 1,4-dioxane, 290.65 K): 0.0209 | solubility (mole fraction) (in 1,4-dioxane, 293.15 K): 0.0228 | solubility (mole fraction) (in 1,4-dioxane, 295.65 K): 0.0248 | solubility (mole fraction) (in 1,4-dioxane, 298.15 K): 0.0271 | solubility (mole fraction) (in 1,4-dioxane, 300.65 K): 0.0295 | solubility (mole fraction) (in 1,4-dioxane, 303.15 K): 0.032 | solubility (mole fraction) (in 1,4-dioxane, 305.65 K): 0.0348 | solubility (mole fraction) (in 1,4-dioxane, 308.15 K): 0.0375 | solubility (mole fraction) (in 1,4-dioxane, 310.65 K): 0.0405 | solubility (mole fraction) (in 1,4-dioxane, 313.15 K): 0.0436 | solubility (mole fraction) (in NMP, 278.15 K): 0.0323 | solubility (mole fraction) (in NMP, 280.65 K): 0.0338 | solubility (mole fraction) (in NMP, 283.15 K): 0.0354 | solubility (mole fraction) (in NMP, 285.65 K): 0.037 | solubility (mole fraction) (in NMP, 288.15 K): 0.0388 | solubility (mole fraction) (in NMP, 290.65 K): 0.0406 | solubility (mole fraction) (in NMP, 293.15 K): 0.0425 | solubility (mole fraction) (in NMP, 295.65 K): 0.0445 | solubility (mole fraction) (in NMP, 298.15 K): 0.0465 | solubility (mole fraction) (in NMP, 300.65 K): 0.0487 | solubility (mole fraction) (in NMP, 305.65 K): 0.0531 | solubility (mole fraction) (in NMP, 308.15 K): 0.0556 | solubility (mole fraction) (in NMP, 310.65 K): 0.0581 | solubility (mole fraction) (in NMP, 313.15 K): 0.0607 | solubility (mole fraction) (in acetone, 278.15 K): 0.0159 | solubility (mole fraction) (in acetone, 280.65 K): 0.0174 | solubility (mole fraction) (in acetone, 283.15 K): 0.0189 | solubility (mole fraction) (in acetone, 285.65 K): 0.0207 | solubility (mole fraction) (in acetone, 288.15 K): 0.0226 | solubility (mole fraction) (in acetone, 290.65 K): 0.0243 | solubility (mole fraction) (in acetone, 293.15 K): 0.0261 | solubility (mole fraction) (in acetone, 295.65 K): 0.0283 | solubility (mole fraction) (in acetone, 298.15 K): 0.0307 | solubility (mole fraction) (in acetone, 300.65 K): 0.0328 | solubility (mole fraction) (in acetone, 303.15 K): 0.0351 | solubility (mole fraction) (in acetone, 305.65 K): 0.0378 | solubility (mole fraction) (in acetone, 308.15 K): 0.0404 | solubility (mole fraction) (in acetone, 310.65 K): 0.0433 | solubility (mole fraction) (in acetone, 313.15 K): 0.0463 | solubility (mole fraction) (in acetonitrile, 278.15 K): 0.00138 | solubility (mole fraction) (in acetonitrile, 280.65 K): 0.00154 | solubility (mole fraction) (in acetonitrile, 283.15 K): 0.00169 | solubility (mole fraction) (in acetonitrile, 285.65 K): 0.00188 | solubility (mole fraction) (in acetonitrile, 288.15 K): 0.00208 | solubility (mole fraction) (in acetonitrile, 290.65 K): 0.00229 | solubility (mole fraction) (in acetonitrile, 293.15 K): 0.00252 | solubility (mole fraction) (in acetonitrile, 295.65 K): 0.00277 | solubility (mole fraction) (in acetonitrile, 298.15 K): 0.00303 | solubility (mole fraction) (in acetonitrile, 300.65 K): 0.00332 | solubility (mole fraction) (in acetonitrile, 303.15 K): 0.00362 | solubility (mole fraction) (in acetonitrile, 305.65 K): 0.00395 | solubility (mole fraction) (in acetonitrile, 308.15 K): 0.00431 | solubility (mole fraction) (in acetonitrile, 310.65 K): 0.00468 | solubility (mole fraction) (in acetonitrile, 313.15 K): 0.0051 | solubility (mole fraction) (in ethanol, 278.15 K): 0.00994 | solubility (mole fraction) (in ethanol, 280.65 K): 0.0109 | solubility (mole fraction) (in ethanol, 283.15 K): 0.0118 | solubility (mole fraction) (in ethanol, 285.65 K): 0.0129 | solubility (mole fraction) (in ethanol, 288.15 K): 0.014 | solubility (mole fraction) (in ethanol, 290.65 K): 0.0151 | solubility (mole fraction) (in ethanol, 293.15 K): 0.0164 | solubility (mole fraction) (in ethanol, 295.65 K): 0.0177 | solubility (mole fraction) (in ethanol, 298.15 K): 0.0191 | solubility (mole fraction) (in ethanol, 300.65 K): 0.0205 | solubility (mole fraction) (in ethanol, 303.15 K): 0.0221 | solubility (mole fraction) (in ethanol, 305.65 K): 0.0238 | solubility (mole fraction) (in ethanol, 308.15 K): 0.0255 | solubility (mole fraction) (in ethanol, 310.65 K): 0.0273 | solubility (mole fraction) (in ethanol, 313.15 K): 0.0293 | solubility (mole fraction) (in ethyl acetate, 278.15 K): 0.0125 | solubility (mole fraction) (in ethyl acetate, 280.65 K): 0.0136 | solubility (mole fraction) (in ethyl acetate, 283.15 K): 0.0149 | solubility (mole fraction) (in ethyl acetate, 285.65 K): 0.0161 | solubility (mole fraction) (in ethyl acetate, 288.15 K): 0.0176 | solubility (mole fraction) (in ethyl acetate, 290.65 K): 0.0191 | solubility (mole fraction) (in ethyl acetate, 293.15 K): 0.0206 | solubility (mole fraction) (in ethyl acetate, 295.65 K): 0.0222 | solubility (mole fraction) (in ethyl acetate, 298.15 K): 0.0241 | solubility (mole fraction) (in ethyl acetate, 300.65 K): 0.0259 | solubility (mole fraction) (in ethyl acetate, 303.15 K): 0.0278 | solubility (mole fraction) (in ethyl acetate, 308.15 K): 0.0321 | solubility (mole fraction) (in ethyl acetate, 310.65 K): 0.0343 | solubility (mole fraction) (in ethyl acetate, 313.15 K): 0.0368 | solubility (mole fraction) (in ethylbenzene, 278.15 K): 0.00011 | solubility (mole fraction) (in ethylbenzene, 280.65 K): 0.00013 | solubility (mole fraction) (in ethylbenzene, 283.15 K): 0.000149 | solubility (mole fraction) (in ethylbenzene, 285.65 K): 0.000172 | solubility (mole fraction) (in ethylbenzene, 288.15 K): 0.000196 | solubility (mole fraction) (in ethylbenzene, 290.65 K): 0.000224 | solubility (mole fraction) (in ethylbenzene, 293.15 K): 0.000255 | solubility (mole fraction) (in ethylbenzene, 295.65 K): 0.00029 | solubility (mole fraction) (in ethylbenzene, 298.15 K): 0.000326 | solubility (mole fraction) (in ethylbenzene, 300.65 K): 0.000371 | solubility (mole fraction) (in ethylbenzene, 303.15 K): 0.000418 | solubility (mole fraction) (in ethylbenzene, 305.65 K): 0.000472 | solubility (mole fraction) (in ethylbenzene, 308.15 K): 0.000528 | solubility (mole fraction) (in ethylbenzene, 310.65 K): 0.000594 | solubility (mole fraction) (in ethylbenzene, 313.15 K): 0.000664 | solubility (mole fraction) (in isopropanol, 278.15 K): 0.00925 | solubility (mole fraction) (in isopropanol, 280.65 K): 0.0101 | solubility (mole fraction) (in isopropanol, 283.15 K): 0.0111 | solubility (mole fraction) (in isopropanol, 285.65 K): 0.012 | solubility (mole fraction) (in isopropanol, 288.15 K): 0.0131 | solubility (mole fraction) (in isopropanol, 290.65 K): 0.0143 | solubility (mole fraction) (in isopropanol, 293.15 K): 0.0155 | solubility (mole fraction) (in isopropanol, 295.65 K): 0.0167 | solubility (mole fraction) (in isopropanol, 298.15 K): 0.0181 | solubility (mole fraction) (in isopropanol, 300.65 K): 0.0195 | solubility (mole fraction) (in isopropanol, 303.15 K): 0.0211 | solubility (mole fraction) (in isopropanol, 305.65 K): 0.0227 | solubility (mole fraction) (in isopropanol, 308.15 K): 0.0244 | solubility (mole fraction) (in isopropanol, 310.65 K): 0.0262 | solubility (mole fraction) (in isopropanol, 313.15 K): 0.0282 | solubility (mole fraction) (in n-butanol, 278.15 K): 0.00768 | solubility (mole fraction) (in n-butanol, 280.65 K): 0.0084 | solubility (mole fraction) (in n-butanol, 283.15 K): 0.00925 | solubility (mole fraction) (in n-butanol, 285.65 K): 0.0102 | solubility (mole fraction) (in n-butanol, 288.15 K): 0.0111 | solubility (mole fraction) (in n-butanol, 290.65 K): 0.0121 | solubility (mole fraction) (in n-butanol, 293.15 K): 0.0132 | solubility (mole fraction) (in n-butanol, 295.65 K): 0.0144 | solubility (mole fraction) (in n-butanol, 298.15 K): 0.0157 | solubility (mole fraction) (in n-butanol, 300.65 K): 0.017 | solubility (mole fraction) (in n-butanol, 303.15 K): 0.0184 | solubility (mole fraction) (in n-butanol, 305.65 K): 0.0199 | solubility (mole fraction) (in n-butanol, 308.15 K): 0.0215 | solubility (mole fraction) (in n-butanol, 310.65 K): 0.0232 | solubility (mole fraction) (in n-butanol, 313.15 K): 0.025 | solubility (mole fraction) (in n-propanol, 278.15 K): 0.00869 | solubility (mole fraction) (in n-propanol, 280.65 K): 0.0095 | solubility (mole fraction) (in n-propanol, 283.15 K): 0.0103 | solubility (mole fraction) (in n-propanol, 285.65 K): 0.0113 | solubility (mole fraction) (in n-propanol, 288.15 K): 0.0123 | solubility (mole fraction) (in n-propanol, 290.65 K): 0.0134 | solubility (mole fraction) (in n-propanol, 293.15 K): 0.0144 | solubility (mole fraction) (in n-propanol, 295.65 K): 0.0157 | solubility (mole fraction) (in n-propanol, 298.15 K): 0.017 | solubility (mole fraction) (in n-propanol, 300.65 K): 0.0184 | solubility (mole fraction) (in n-propanol, 303.15 K): 0.0198 | solubility (mole fraction) (in n-propanol, 305.65 K): 0.0214 | solubility (mole fraction) (in n-propanol, 308.15 K): 0.023 | solubility (mole fraction) (in n-propanol, 310.65 K): 0.0248 | solubility (mole fraction) (in n-propanol, 313.15 K): 0.0266 | solubility (mole fraction) (in toluene, 278.15 K): 0.000136 | solubility (mole fraction) (in toluene, 280.65 K): 0.000157 | solubility (mole fraction) (in toluene, 283.15 K): 0.00018 | solubility (mole fraction) (in toluene, 285.65 K): 0.000204 | solubility (mole fraction) (in toluene, 288.15 K): 0.000233 | solubility (mole fraction) (in toluene, 290.65 K): 0.000266 | solubility (mole fraction) (in toluene, 293.15 K): 0.000299 | solubility (mole fraction) (in toluene, 295.65 K): 0.000339 | solubility (mole fraction) (in toluene, 298.15 K): 0.000384 | solubility (mole fraction) (in toluene, 300.65 K): 0.000427 | solubility (mole fraction) (in toluene, 303.15 K): 0.000478 | solubility (mole fraction) (in toluene, 305.65 K): 0.000533 | solubility (mole fraction) (in toluene, 308.15 K): 0.000597 | solubility (mole fraction) (in toluene, 310.65 K): 0.000668 | solubility (mole fraction) (in toluene, 313.15 K): 0.000742
